In data set [1] the test system is FADU (Pharynx-sqam). Nature of the data set: Growth inhibition of human cancer cell line FADU. Particulars: Table I. The data set is classed as cell-based.
Data set [2] relates to SW1736 (Thyroid ca). Nature of the data set: Growth inhibition of human cancer cell line SW1736. Conditions: SW-1736, SW1736, Table I. It counts as cell-based.
Data set [3] concerns BXPC-3 (Pancreas-a). Nature of the data set: Growth inhibition of human cancer cell line BXPC-3. It counts as cell-based. As for the experimental part: (§1) 3-(3′,4′,5′-Trimethoxybenzoyl)-2-(4′-methoxyphenyl)-6-methoxyindole was evaluated in terms of growth inhibitory activity against several human cancer cell lines, including pancreas, ovarian, CNS, lung-NSC, colon, and prostate lines. The assay used is described in Monks et al. Briefly, the cell suspensions, diluted according to the particular cell type and the expected target cell density (5,000-40,000 cells per well based on cell growth characteristics), were added by pipet (100 μl) to 96-well microtiter plates. Inoculates were allowed a preincubation time of24-28 hours at 37° C. for stabilization. Incubation with the inhibitor compounds lasted for 48 hours in 5% CO2 atmosphere and 100% humidity. Determination of cell growth was done by in situ fixation of cells, followed by staining with a protein-binding dye, sulforhodamine B (SRB), which binds to the basic amino acids of cellular macromolecules. The solubilized stain was measured spectrophotometrically. G150 is defined as the dosage required to inhibit tumor cell growth by 50%.

The test system of data set [4] is DU-145 (Prostate). Nature of the data set: Growth inhibition of human cancer cell line DU-145. The data set is classed as cell-based. As to the method: as §1
For data set [5], the system named is SK-N-SH (Neuroblast). Nature of the data set: Growth inhibition of human cancer cell line SK-N-SH. The data set is classed as cell-based. Particulars: Table I.
Data set [6] concerns NCI-H460 (Lung-NSC). Nature of the data set: cells. It counts as cell-based. As for the experimental part: as §1
Data set [7] relates to T1, purified tubulin.
T1 construct: other: at 4 pM
Nature of the data set: Inhibition of tubulin polymerization assay. It counts as biochemical, bovine. As to the method:
IC50 values for tubulin polymerization were determined according to the procedure described in Bai et al. Purified tubulin is obtained from bovine brain cells as described in Hamel and Lin. Various amounts of inhibitor were preincubated for 15 minutes at 37° C. with purified tubulin. After the incubation period, the reaction was cooled and GTP was added to induce tubulin polymerization. Polymerization was then monitored in a Gilford spectrophotometer at 350 nm. The final reaction mixtures (0.25 ml) contained 1.5 mg/ml tubulin, 0.6 mg/ml microtubule-associated proteins (MAPs), 0.5 mM GTP, […], 4% DMSO and 0.1M 4-morpholineethanesulfonate buffer (MES, pH 6.4). IC50 is the amount of inhibitor needed to inhibit tubulin polymerization 50% with respect to the amount of […] that occurs in the absence of inhibitor.

For data set [8], the system named is SF-295 (CNS). Particulars: data from synthesis of phenstatin phosphate (Pettit); cited from earlier work.
For data set [9], the system named is KM20L2 (Colon). Particulars: data from synthesis of phenstatin phosphate (Pettit); cited from earlier work.
Data set [10] deals with OVCAR-3 (Ovarian). Conditions: data from synthesis of phenstatin phosphate (Pettit); cited from earlier work.
Data set [11] concerns purified tubulin. Particulars: reported by Pettit and co-workers, cited from earlier work; for IC50: read-out: IC50 for inhibition of tubulin polymerization.
Data set [12] concerns NCI-H460 (Lung-NSC). Particulars: data from synthesis of phenstatin phosphate (Pettit); cited from earlier work.
Data set [13] relates to KM20L2 (Colon). Nature of the data set: Growth inhibition of human cancer cell line KM20L2. The data set is classed as cell-based. As for the experimental part: as §1
Data set [14] relates to SF-295 (CNS). Nature of the data set: Growth inhibition of human cancer cell line SF-295. It counts as cell-based. As for the experimental part: as §1
Data set [15] concerns OVCAR-3 (Ovarian). Nature of the data set: Growth inhibition of human cancer cell line OVCAR-3. The data set is classed as cell-based. As to the method:
as §1

The test system of data set [16] is P388 leukemia cells. Nature of the data set: Cytotoxic assay with P388 leukemia cells. It counts as cell-based.
Where [17] appears, read: read-out: IC50 for inhibition of tubulin polymerization.

In brackets after ≈: the same amount, converted by molar mass. Read-outs that look alike come from different tables or passages of the source.

The values below come from patent US6849656B1, “Indole-containing and combretastatin-related anti-mitotic and anti-tubulin polymerization agents” (Baylor University, priority 1999, dated 2005).

Consider `COc1ccc(-c2c(C(=O)c3cc(OC)c(OC)c(OC)c3)oc3cc(OC)ccc23)cc1` [2-(3′,4′,5′-trimethoxybenzoyl)-3-(4′-methoxyphenyl)-6-methoxybenzo[b]furan, reference compound], for which the GI50 (usually the concentration that inhibits growth by half) in data set [1] was 0.035 µg/mL (≈ 0.078 µM); in data set [2] it was 0.047 µg/mL (≈ 0.105 µM); in data set [3] (Homo sapiens, BXPC-3, Table I, read-out: GI50), 0.038 µg/mL (≈ 0.0847 µM); in data set [4] (Homo sapiens, DU-145, Table I, read-out: GI50) it was 0.062 µg/mL (≈ 0.138 µM); in [5], 0.025 µg/mL (≈ 0.0557 µM); in data set [6] (Homo sapiens, NCI-H460, Table I, read-out: GI50), 0.041 µg/mL (≈ 0.0914 µM).
With `COc1ccc(-c2[nH]c3cc(OC)ccc3c2C(=O)c2cc(OC)c(OC)c(OC)c2)cc1` [3-(3′,4′,5′-trimethoxybenzoyl)-2-(4′-methoxyphenyl)-6-methoxyindole], the IC50 in data set [7] (setting [17]) fell in the range of 500 to 1500 nM.
With `COc1ccc(/C=C\c2cc(OC)c(OC)c(OC)c2)cc1N` [Amine-CA-4 8], the IC50 in data set [7] (setting [17]) came to 1200 ± 20 nM. Further, the concentration for 50% growth inhibition (GI50) in [6] (Homo sapiens, NCI-H460, read-out: GI50) was 0.00068 µg/mL (≈ 0.00216 µM).
Turning to `COc1ccc(/C=C\c2cc(OC)c(OC)c(OC)c2)cc1OP(=O)(O)O` [Combretastatin A-4 Prodrug], the GI50 is 0.036 µg/mL (≈ 0.0908 µM) in [8], 0.34 µg/mL (≈ 0.858 µM) in [9], 0.023 µg/mL (≈ 0.058 µM) in data set [10] and 0.029 µg/mL (≈ 0.0732 µM) in data set [12]. Moreover, the “inhibition of tubulin polymerization” value in [11] is “no inhibition”. Moreover, the IC50 in [11] was more than 80000 nM.
Consider `COc1ccc(-c2[nH]c3cc(OC)ccc3c2C(=O)c2cc(OC)c(OC)c(OC)c2)cc1` [Indole-based Ligand 33, 3-(3′,4′,5′-trimethoxybenzoyl)-2-(4′-methoxyphenyl)-6-methoxyindole], for which the 50% growth inhibitory concentration (GI50) came to 0.0017 µg/mL (≈ 0.0038 µM) in data set [13] (Homo sapiens, KM-20L2, KM20L2, 48 hours, SRB, read-out: GI50); 0.0024 µg/mL (≈ 0.00536 µM) in [14] (Homo sapiens, SF-295, 48 hours, SRB, read-out: GI50); 0.0024 µg/mL (≈ 0.00536 µM) in [15] (Homo sapiens, OVCAR-3, 48 hours, SRB, read-out: GI50); 0.002 µg/mL (≈ 0.00447 µM) in [3] (Homo sapiens, BXPC-3, 48 hours, SRB, read-out: GI50); 0.0023 µg/mL (≈ 0.00514 µM) in data set [4] (Homo sapiens, DU-145, 48 hours, SRB, read-out: GI50); 0.0026 µg/mL (≈ 0.00581 µM) in data set [6] (Homo sapiens, NCI-H460, 48 hours, SRB, read-out: GI50). In data set [16] (P388 leukemia cells), the “ED50 (effective dosage required to inhibit 50% of cell growth)” value was 0.0133 µg/mL.
On to `COc1ccc(C(=O)c2cc(OC)c(OC)c(OC)c2)cc1OP(=O)(O)O` [Phenstatin Prodrug], for which the concentration for 50% growth inhibition (GI50) in data set [8] is 0.012 µg/mL (≈ 0.0301 µM); in [9], 0.27 µg/mL (≈ 0.678 µM); in data set [10], 0.0025 µg/mL (≈ 0.00628 µM); in data set [12], 0.035 µg/mL (≈ 0.0879 µM). Also, the “activity in inhibition of tubulin polymerization compared to phenstatin” value in data set [11] is 40%. In addition, in data set [11], the IC50 is 21000 ± 3000 nM.
`COc1ccc(C(=O)c2cc(OC)c(OC)c(OC)c2)cc1O` [Phenstatin, phenstatin]: the GI50 is 0.052 µg/mL (≈ 0.163 µM) in data set [8], 0.0004 µg/mL (≈ 0.00126 µM) in data set [9], 0.0023 µg/mL (≈ 0.00723 µM) in data set [10] and 0.0057 µg/mL (≈ 0.0179 µM) in data set [12]. The IC50 in [11] was 1000 ± 200 nM.
As to `CCOP(=O)(Nc1cc(/C=C\c2cc(OC)c(OC)c(OC)c2)ccc1OC)OCC` [Phosphoramidate Analog 10, (Z)-1-(3′-Diethylphosphoramidate-4′-methoxyphenyl)-2-(3″,4″,5″-trimethoxyphenyl)ethene], the GI50 in data set [13] (KM20L2) was determined as 0.28 µg/mL (≈ 0.62 µM); in data set [14] (SF-295), 0.24 µg/mL (≈ 0.532 µM); in data set [15] (OVCAR-3) it was 0.19 µg/mL (≈ 0.421 µM); in data set [16] (P388), 0.31 µg/mL (≈ 0.687 µM); in [3] (BXPC-3), 0.15 µg/mL (≈ 0.332 µM); in data set [4] (DU-145), 0.26 µg/mL (≈ 0.576 µM). This compound also had a GI50 in data set [6] (NCI-H460) of 0.35 µg/mL (≈ 0.775 µM). The LC50 in [13] (KM20L2), in data set [14] (SF-295), in data set [15] (OVCAR-3), in data set [3] (BXPC-3), in [4] (DU-145) and in data set [6] (NCI-H460) was more than 10 µg/mL throughout. For the same compound, the TGI (in general, the concentration at which net growth stops) in data set [13] (KM20L2) was 0.61 µg/mL (≈ 1.35 µM); in data set [14] (SF-295), more than 10 µg/mL; in data set [15] (OVCAR-3), 0.86 µg/mL (≈ 1.9 µM); in data set [3] (BXPC-3), 0.57 µg/mL (≈ 1.26 µM); in data set [4] (DU-145), 0.26 µg/mL (≈ 0.576 µM); in [6] (NCI-H460), more than 10 µg/mL. Further, the “activity in inhibition of tubulin polymerization” value in data set [7] is recorded as “little if any activity”.
Consider `COc1ccc(/C=C\c2cc(OC)c(OC)c(OC)c2)cc1O` [combretastatin A-4, reference compound], for which the results for the IC50 in data set [11] and in data set [7] (read-out: 50% inhibition of the maximum tubulin assembly rate) were […] and […], respectively.
